Values belong to the compound of their own block, whether it stands above or below them. Active and inactive are the calls of the source. The calls are words filed in the database; no cut-off is given here.
Legend:
[1] = tested on: Cc1ccc(OCCNc2nc(Nc3cc(C)[nH]n3)cc(C)c2C#N)cn1; settings: Homo sapiens
Description: Activity at cSRC (unknown origin)

[2] = organism: Homo sapiens; assay: Inhibition of Aurora kinase (unknown origin) assessed as reduction in histone H3 phosphorylation at Ser10 residue
[3] = organism: Sus scrofa; assay: Inhibition of pig brain tubulin polymerization at 10 uM in presence of GTP relative to control
[4] = tested on: Cc1ccc(OCCNc2nc(Nc3cc(C)[nH]n3)cc(C)c2C#N)cn1; settings: Homo sapiens; remark: listed apart in the source
Description: Activity at YES (unknown origin)

[5] = tested on: HCT-116; assay: Antitumor activity against human HCT116 cells xenografted subcutaneously in mouse assessed as tumor growth inhibition at 100 mg/kg, po qd after 14 days; format: functional, organism-based
[6] = tested on: HCT-116; assay: Antitumor activity against human HCT116 cells xenografted subcutaneously in mouse assessed as tumor growth inhibition at 30 mg/kg, po qd after 14 days; format: functional

Tyrosine-protein kinase Yes (Homo sapiens), P07947, sequence (P07947 whole entry): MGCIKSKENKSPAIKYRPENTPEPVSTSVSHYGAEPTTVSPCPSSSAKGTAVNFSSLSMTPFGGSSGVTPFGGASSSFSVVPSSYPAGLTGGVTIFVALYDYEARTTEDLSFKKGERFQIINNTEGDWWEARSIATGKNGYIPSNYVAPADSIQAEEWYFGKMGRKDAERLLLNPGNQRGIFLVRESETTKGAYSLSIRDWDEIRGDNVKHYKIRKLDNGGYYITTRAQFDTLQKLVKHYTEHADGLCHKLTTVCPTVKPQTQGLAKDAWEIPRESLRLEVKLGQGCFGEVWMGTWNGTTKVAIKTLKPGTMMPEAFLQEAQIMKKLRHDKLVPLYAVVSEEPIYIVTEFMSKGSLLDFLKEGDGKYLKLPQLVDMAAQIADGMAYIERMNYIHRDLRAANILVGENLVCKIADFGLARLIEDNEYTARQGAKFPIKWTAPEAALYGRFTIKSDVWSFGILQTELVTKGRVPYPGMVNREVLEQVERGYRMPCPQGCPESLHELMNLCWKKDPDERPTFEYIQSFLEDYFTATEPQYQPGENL

Compound: Proto-oncogene tyrosine-protein kinase Src (Homo sapiens) (from UniProt P12931)
- Km [1]: 200 µM

- inhibition [2]: Active
- inhibition [3]: 63%
Compound: Cc1ccc(OCCNc2nc(Nc3cc(C)[nH]n3)cc(C)c2C#N)cn1

Compound: Tyrosine-protein kinase Yes (Homo sapiens), P07947
- Km [4]: 45 µM

Compound: Cc1cc(Nc2cc(N3CCN(C)CC3)nc(Sc3ccc(NC(=O)C4CC4)cc3)n2)n[nH]1
- TGI [5]: 68%
- TGI [6]: 60%

From ChEMBL document CHEMBL3871290, “3-Cyano-6-(5-methyl-3-pyrazoloamino) pyridines (Part 2): A dual inhibitor of Aurora kinase and tubulin polymerization” (Bioorg Med Chem Lett, 2016)
